Laboratory results: ChEMBL document CHEMBL4715876 (J Med Chem, 2020)
≈ marks a conversion by molar mass, not a printed value. Values belong to the compound of their own block, whether it stands above or below them.

How the values were obtained:
[1] = Tmax in BALB/C mouse at 10 mg/kg, iv measured upto 24 hrs by LC-MS analysis; format: ADME, organism-based; settings: in vivo
[2] = Cmax in BALB/C mouse at 10 mg/kg, iv measured upto 24 hrs by LC-MS analysis; format: ADME, organism-based; parameters: route intravenous, dose 10 mg/kg, time <= 24; settings: in vivo
[3] = AUClast in BALB/C mouse at 10 mg/kg, iv measured upto 24 hrs by LC-MS analysis; format: ADME, organism-based; parameters: route intravenous, dose 10 mg/kg, time <= 24; settings: in vivo
[4] = Tmax in BALB/C mouse at 10 mg/kg, po measured upto 24 hrs by LC-MS analysis; format: ADME, organism-based; settings: in vivo
[5] = Cmax in BALB/C mouse at 10 mg/kg,po measured upto 24 hrs by LC-MS analysis; format: ADME, organism-based; parameters: route oral, dose 10 mg/kg, time <= 24; settings: in vivo
[6] = AUClast in BALB/C mouse at 10 mg/kg,po measured upto 24 hrs by LC-MS analysis; format: ADME, organism-based; parameters: route oral, dose 10 mg/kg, time <= 24; settings: in vivo
[7] = Oral bioavailability in BALB/C mouse at 10 mg/kg measured upto 24 hrs by LC-MS analysis; format: ADME, organism-based; settings: in vivo
[8] = Tmax in Sprague-Dawley rat at 2 mg/kg, iv measured upto 24 hrs by LC-MS/MS analysis; format: ADME, organism-based; settings: in vivo
[9] = Cmax in Sprague-Dawley rat at 2 mg/kg, iv measured upto 24 hrs by LC-MS/MS analysis; format: ADME, organism-based; parameters: route intravenous, dose 2 mg/kg, time <=24; settings: in vivo
[10] = AUClast in Sprague-Dawley rat at 2 mg/kg, iv measured upto 24 hrs by LC-MS/MS analysis; format: ADME, organism-based; parameters: route intravenous, dose 2 mg/kg, time <=24; settings: in vivo
[11] = Volume of distribution at steady state in Sprague-Dawley rat at 2 mg/kg, iv measured upto 24 hrs by LC-MS/MS analysis; format: ADME, organism-based; settings: in vivo, read-out: Vdss
[12] = Tmax in Sprague-Dawley rat at 10 mg/kg, po measured upto 24 hrs by LC-MS/MS analysis; format: ADME, organism-based; settings: in vivo
[13] = Cmax in Sprague-Dawley rat at 10 mg/kg, po measured upto 24 hrs by LC-MS/MS analysis; format: ADME, organism-based; parameters: route oral, dose 10 mg/kg, time <=24; settings: in vivo
[14] = Oral bioavailability in Sprague-Dawley rat at 10 mg/kg measured upto 24 hrs by LC-MS/MS analysis; format: ADME, organism-based; settings: in vivo
[15] = Cmax in Beagle dog at 1 mg/kg, iv measured upto 24 hrs by LC-MS/MS analysis; format: ADME, organism-based, Canis lupus familiaris; parameters: route intravenous, dose 1 mg/kg, time <=24; settings: in vivo
[16] = AUClast in Beagle dog at 1 mg/kg, iv measured upto 24 hrs by LC-MS/MS analysis; format: ADME, organism-based, Canis lupus familiaris; parameters: route intravenous, dose 1 mg/kg, time <=24; settings: in vivo
[17] = Volume of distribution at steady state in Beagle dog at 1 mg/kg, iv measured upto 24 hrs by LC-MS/MS analysis; format: ADME, organism-based, Canis lupus familiaris; settings: in vivo, 1 mg/kg, 24 h
[18] = Tmax in Beagle dog at 5 mg/kg, po measured upto 24 hrs by LC-MS/MS analysis; format: ADME, organism-based, Canis lupus familiaris; settings: in vivo
[19] = Cmax in Beagle dog at 5 mg/kg, po measured upto 24 hrs by LC-MS/MS analysis; format: ADME, organism-based, Canis lupus familiaris; parameters: route oral, dose 5 mg/kg, time <=24; settings: in vivo
[20] = AUClast in Beagle dog at 5 mg/kg, po measured upto 24 hrs by LC-MS/MS analysis; format: ADME, organism-based, Canis lupus familiaris; parameters: route oral, dose 5 mg/kg, time <=24; settings: in vivo
[21] = Oral bioavailability in Beagle dog at 5 mg/kg measured upto 24 hrs by LC-MS/MS analysis; format: ADME, organism-based, Canis lupus familiaris; settings: in vivo
[22] = Lipophilicity, log D of compound at pH 7.4; format: physicochemical; settings: buffer
[23] = Solubility of the compound; format: physicochemical
[24] = Tmax in BALB/C mouse at 1 mg/kg, iv measured upto 24 hrs by LC-MS analysis; format: ADME, organism-based; settings: in vivo
[25] = Cmax in BALB/C mouse at 1 mg/kg, iv measured upto 24 hrs by LC-MS analysis; format: ADME, organism-based; parameters: route intravenous, dose 1 mg/kg, time <= 24; settings: in vivo
[26] = AUClast in BALB/C mouse at 1 mg/kg, iv measured upto 24 hrs by LC-MS analysis; format: ADME, organism-based; parameters: route intravenous, dose 1 mg/kg, time <= 24; settings: in vivo
[27] = Volume of distribution at steady state in BALB/C mouse at 1 mg/kg, iv measured upto 24 hrs by LC-MS analysis; format: ADME, organism-based; settings: in vivo, read-out: Vdss

Structure (SMILES): C[C@H](Nc1ncnc2[nH]cnc12)c1nc2cccc(Cl)c2c(=O)n1-c1ccccc1
- Tmax [1]: 4.98 min
- Cmax [2]: 13300 nM
- AUC(0-t) at 24 h [3]: 4.55 µM·h
- Tmax [4]: 4.98 min
- Cmax [5]: 930 nM
- AUC(0-t) at 24 h [6]: 0.328 µM·h
- bioavailability [7]: 7%
- Tmax [8]: 4.98 min
- Cmax [9]: 3640 nM
- AUC(0-t) at 24 h [10]: 2.77 µM·h
- Vd [11]: 1.66 L/kg
- Tmax [12]: 72 min
- Cmax [13]: 1880 nM
- bioavailability [14]: 57%
- Cmax [15]: 1200 nM
- AUClast [16]: 1.88 µM·h
- Vdss [17]: 57 L/kg
- Tmax [18]: 79.8 min
- Cmax [19]: 5680 nM
- AUClast [20]: 26.25 µM·h
- F [21]: 40%

- logD [22]: 3.26
- solubility [23]: 44.9 µM (≈ 22.9 µg/mL)
Structure (SMILES): Cc1nc(N)nc(N[C@@H](C)c2c(-c3ccccc3)c(=O)n3cc(F)ccc3c2-c2ccc(F)cc2)c1C#N

- logD [22]: 2.49
- solubility [23]: 50.6 µM (≈ 24.9 µg/mL)
Structure (SMILES): C[C@H](Nc1nc(N)nc(N)c1C#N)c1c(-c2ccccc2)c(=O)n2cc(F)ccc2c1-c1ccccc1

- Tmax [4]: 60 min
- Cmax [5]: 1300 nM
- AUC(0-t) at 24 h [6]: 2.4 µM·h
- bioavailability [7]: 16%
- Tmax [24]: 4.8 min
- Cmax [25]: 1400 nM
- AUC(0-t) at 24 h [26]: 1.5 µM·h
- Vd [27]: 1.8 L/kg
Structure (SMILES): C[C@H](Nc1nc(N)nc(N)c1C#N)c1c(-c2ccccc2)c(=O)n2cc(F)ccc2c1C1CC1
